How the values were obtained:
[1] = test system: Differentiated U937 cells; experiment: (l) Cell viability: MTT assay; type: cell-based, human; conditions: 1 μg/mL
Experimental: Differentiated U937 cells are pre-incubated with each test compound (final concentration 1 μg/mL or 10 μg/mL in 200 μL media indicated below) under two protocols: the first for 4 hr in 5% FCS RPMI1640 media and the second in 10% FCS RPMI1640 media for 24 h. The supernatant is replaced with new media (200 μL) and MTT stock solution (10 μL, 5 mg/mL) is added to each well. After incubation for 1 hr the media are removed, DMSO (200 μL) is added to each well and the plates are shaken lightly for 1 hr prior to reading the absorbance at 550 nm. The percentage loss of cell viability is calculated for each well relative to vehicle (0.5% DMSO) treatment. Consequently an apparent increase in cell viability for drug treatment relative to vehicle is tabulated as a negative percentage.

[2] = molecular target: p38 MAPKα isoform (MAPK14) (Homo sapiens (Human), UniProt Q16539); experiment: p38 MAPKα enzyme inhibition (FRET, Z-LYTE), Method 1; type: biochemical; conditions: Method 1 (Table 4a1)
Experimental: The enzyme inhibitory activities of compounds disclosed herein are determined by FRET using synthetic peptides labelled with both donor and acceptor fluorophores (Z-LYTE, Invitrogen Ltd., Paisley, UK).
The inhibitory activities of test compounds against the p38 MAPKα isoform (MAPK14: Invitrogen), are evaluated indirectly by determining the level of activation/phosphorylation of the down-stream molecule, MAPKAP-K2. The p38 MAPKα protein (80 ng/mL, 2.5 μL) is mixed with the test compound (2.5 μL of either 4 μg/mL, 0.4 μg/mL, 0.04 μg/mL or 0.004 μg/mL) for 2 hr at RT. […] The mixture is incubated for 1 hr at RT. Development reagent (protease, 5 μL) is added for 1 hr prior to detection in a fluorescence microplate reader (Varioskan® Flash, ThermoFisher Scientific).
In all cases, the site-specific protease cleaves non-phosphorylated peptide only and eliminates the FRET signal. Phosphorylation levels of each reaction are calculated using the ratio of coumarin emission (donor) over fluorescein emission (acceptor), for which high ratios indicate high phosphorylation and low ratios indicate low phosphorylation levels.

Chain of p38 MAPKα isoform (MAPK14) (Q16539 whole entry, canonical isoform): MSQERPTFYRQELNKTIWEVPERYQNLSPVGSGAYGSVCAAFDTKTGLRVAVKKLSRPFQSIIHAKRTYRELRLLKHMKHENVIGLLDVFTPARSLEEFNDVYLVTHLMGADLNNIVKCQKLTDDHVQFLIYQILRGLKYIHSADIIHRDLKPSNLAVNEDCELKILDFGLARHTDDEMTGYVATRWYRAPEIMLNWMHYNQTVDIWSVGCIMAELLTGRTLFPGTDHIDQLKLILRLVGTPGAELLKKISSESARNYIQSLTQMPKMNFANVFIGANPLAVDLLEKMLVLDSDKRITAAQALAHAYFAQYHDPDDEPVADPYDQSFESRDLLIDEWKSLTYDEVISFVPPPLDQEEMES

COc1cc(Nc2nccc(Oc3ccc(NC(=O)Nc4cc(C(C)C)nn4-c4ccc(C)cc4)c4ccccc34)n2)cc(C(=O)NCCN(C)C)c1 [Example 5, N-(2-(Dimethylamino)ethyl)-3-((4-((4-(3-(3-isopropyl-1-(p-tolyl)-1H-pyrazol-5-yl)ureido)naphthalen-1-yl)oxy)pyrimidin-2-yl)amino)-5-methoxybenzamide]
Cell viability at time point in d-U937 cells 4 h [1]: −ve (−ve and +ve indicate that the value is below and above respectively, the no significant effect threshold, defined as 30% inhibition at 1 μg/mL at the time point indicated.)
Cell viability at time point in d-U937 cells 24 h [1]: −ve (−ve and +ve indicate that the value is below and above respectively, the no significant effect threshold, defined as 30% inhibition at 1 μg/mL at the time point indicated.)
IC50 [2]: 1 nM

COc1cc(Nc2nccc(Oc3ccc(NC(=O)Nc4cc(C(C)C)nn4-c4ccc(OC)nc4)c4ccccc34)n2)cc(C(=O)NCCN2CCOCC2)c1 [Example 10, 3-((4-((4-(3-(3-Isopropyl-1-(6-methoxypyridin-3-yl)-1H-pyrazol-5-yl)ureido)naphthalen-1-yl)oxy)pyrimidin-2-yl)amino)-5-methoxy-N-(2-morpholinoethyl)benzamide]
Cell viability at time point in d-U937 cells 4 h [1]: −ve (−ve and +ve indicate that the value is below and above respectively, the no significant effect threshold, defined as 30% inhibition at 1 μg/mL at the time point indicated.)
Cell viability at time point in d-U937 cells 24 h [1]: −ve (−ve and +ve indicate that the value is below and above respectively, the no significant effect threshold, defined as 30% inhibition at 1 μg/mL at the time point indicated.)
IC50 [2]: 6 nM

COc1cc(Nc2nccc(Oc3ccc(NC(=O)Nc4cc(C(C)C)nn4-c4ccc(C)cc4)c4ccccc34)n2)cc(C(=O)N2CCOCC2)c1 [Example 12, 1-(3-Isopropyl-1-(p-tolyl)-1H-pyrazol-5-yl)-3-(4-((2-((3-methoxy-5-(morpholine-4-carbonyl)phenyl)amino)pyrimidin-4-yl)oxy)naphthalen-1-yl)urea]
Cell viability at time point in d-U937 cells 4 h [1]: −ve (−ve and +ve indicate that the value is below and above respectively, the no significant effect threshold, defined as 30% inhibition at 1 μg/mL at the time point indicated.)
Cell viability at time point in d-U937 cells 24 h [1]: −ve (−ve and +ve indicate that the value is below and above respectively, the no significant effect threshold, defined as 30% inhibition at 1 μg/mL at the time point indicated.)
IC50 [2]: 6 nM

COc1ccc(-n2nc(C(C)C)cc2NC(=O)Nc2ccc(Oc3cc(Nc4cc(OC)cc(C(=O)NCCN5CCOCC5)c4)ncn3)c3ccccc23)cc1 [Example 14, 3-((6-((4-(3-(3-isopropyl-1-(4-methoxyphenyl)-1H-pyrazol-5-yl)ureido)naphthalen-1-yl)oxy)pyrimidin-4-yl)amino)-5-methoxy-N-(2-morpholinoethyl)benzamide]
Cell viability at time point in d-U937 cells 4 h [1]: −ve (−ve and +ve indicate that the value is below and above respectively, the no significant effect threshold, defined as 30% inhibition at 1 μg/mL at the time point indicated.)
Cell viability at time point in d-U937 cells 24 h [1]: +ve (−ve and +ve indicate that the value is below and above respectively, the no significant effect threshold, defined as 30% inhibition at 1 μg/mL at the time point indicated.)
IC50 [2]: < 1 nM

COc1ccc(-n2nc(C(C)C)cc2NC(=O)Nc2ccc(Oc3ccnc(Nc4cc(OC)cc(C(=O)NCCN5CCOCC5)c4)c3)c3ccccc23)cc1 [Example 15, 3-((4-((4-(3-(3-isopropyl-1-(4-methoxyphenyl)-1H-pyrazol-5-yl)ureido)naphthalen-1-yl)oxy)pyridin-2-yl)amino)-5-methoxy-N-(2-morpholinoethyl)benzamide]
Cell viability at time point in d-U937 cells 4 h [1]: −ve (−ve and +ve indicate that the value is below and above respectively, the no significant effect threshold, defined as 30% inhibition at 1 μg/mL at the time point indicated.)
Cell viability at time point in d-U937 cells 24 h [1]: −ve (−ve and +ve indicate that the value is below and above respectively, the no significant effect threshold, defined as 30% inhibition at 1 μg/mL at the time point indicated.)
IC50 [2]: 7 nM

CNC(=O)c1cccc(Nc2nccc(Oc3ccc(NC(=O)Nc4cc(C(C)(C)C)nn4-c4ccc(C)cc4)c4ccccc34)n2)c1 [Example 16, 3-((4-((4-(3-(3-(tert-butyl)-1-(p-tolyl)-1H-pyrazol-5-yl)ureido)naphthalen-1-yl)oxy)pyrimidin-2-yl)amino)-N-methylbenzamide]
Cell viability at time point in d-U937 cells 4 h [1]: −ve (−ve and +ve indicate that the value is below and above respectively, the no significant effect threshold, defined as 30% inhibition at 1 μg/mL at the time point indicated.)
Cell viability at time point in d-U937 cells 24 h [1]: −ve (−ve and +ve indicate that the value is below and above respectively, the no significant effect threshold, defined as 30% inhibition at 1 μg/mL at the time point indicated.)
IC50 [2]: 34 nM

CCCNC(=O)c1cccc(Nc2nccc(Oc3ccc(NC(=O)Nc4cc(C(C)(C)C)nn4-c4ccc(OC)cc4)c4ccccc34)n2)c1 [Example 17, 3-(4-(4-(3-(3-tert-butyl-1-(4-methoxyphenyl)-1H-pyrazol-5-yl)ureido)naphthalen-1-yloxy)pyrimidin-2-ylamino)-N-propylbenzamide]
Cell viability at time point in d-U937 cells 4 h [1]: −ve (−ve and +ve indicate that the value is below and above respectively, the no significant effect threshold, defined as 30% inhibition at 1 μg/mL at the time point indicated.)
Cell viability at time point in d-U937 cells 24 h [1]: −ve (−ve and +ve indicate that the value is below and above respectively, the no significant effect threshold, defined as 30% inhibition at 1 μg/mL at the time point indicated.)
IC50 [2]: 54 nM

Cc1ccc(-n2nc(C(C)(C)C)cc2NC(=O)Nc2ccc(Oc3ccnc(Nc4cccc(C(=O)NCCN(C)C)c4)n3)c3ccccc23)cc1 [Example 18, 3-((4-((4-(3-(3-(tert-butyl)-1-(p-tolyl)-1H-pyrazol-5-yl)ureido)naphthalen-1-yl)oxy)pyrimidin-2-yl)amino)-N-(2-(dimethylamino)ethyl)benzamide]
Cell viability at time point in d-U937 cells 4 h [1]: −ve (−ve and +ve indicate that the value is below and above respectively, the no significant effect threshold, defined as 30% inhibition at 1 μg/mL at the time point indicated.)
Cell viability at time point in d-U937 cells 24 h [1]: −ve (−ve and +ve indicate that the value is below and above respectively, the no significant effect threshold, defined as 30% inhibition at 1 μg/mL at the time point indicated.)
IC50 [2]: 12 nM

COc1ccc(-n2nc(C(C)C)cc2NC(=O)Nc2ccc(Oc3ccnc(Nc4cccc(C(=O)NCCN5CCOCC5)c4)n3)c3ccccc23)cc1 [Example 20, 3-((4-((4-(3-(3-isopropyl-1-(4-methoxyphenyl)-1H-pyrazol-5-yl)ureido)naphthalen-1-yl)oxy)pyrimidin-2-yl)amino)-N-(2-morpholinoethyl)benzamide]
Cell viability at time point in d-U937 cells 4 h [1]: −ve (−ve and +ve indicate that the value is below and above respectively, the no significant effect threshold, defined as 30% inhibition at 1 μg/mL at the time point indicated.)
Cell viability at time point in d-U937 cells 24 h [1]: −ve (−ve and +ve indicate that the value is below and above respectively, the no significant effect threshold, defined as 30% inhibition at 1 μg/mL at the time point indicated.)
IC50 [2]: 5 nM

COc1ccc(-n2nc(C(C)(C)C)cc2NC(=O)Nc2ccc(Oc3ccnc(Nc4cccc(C(=O)NCCN5CCOCC5)c4)n3)c3ccccc23)cc1 [Example 21, 3-((4-((4-(3-(3-(tert-butyl)-1-(4-methoxyphenyl)-1H-pyrazol-5-yl)ureido)naphthalen-1-yl)oxy)pyrimidin-2-yl)amino)-N-(2-morpholinoethyl)benzamide]
Cell viability at time point in d-U937 cells 4 h [1]: −ve (−ve and +ve indicate that the value is below and above respectively, the no significant effect threshold, defined as 30% inhibition at 1 μg/mL at the time point indicated.)
Cell viability at time point in d-U937 cells 24 h [1]: −ve (−ve and +ve indicate that the value is below and above respectively, the no significant effect threshold, defined as 30% inhibition at 1 μg/mL at the time point indicated.)
IC50 [2]: 10 nM
